Reference: article PMC7380166, “How to Study the Metabolism of New Psychoactive Substances for the Purpose of Toxicological Screenings—A Follow-Up Study Comparing Pooled Human Liver S9, HepaRG Cells, and Zebrafish Larvae” (Frontiers in Chemistry, 2020)

Legend:
HepaRG cells = test: Incubations with HepaRG cells, metabolite identification by LC-HRMS/MS; assay type: in vitro ADME, human; conditions: 24 h
zebrafish larvae [1] = test: In vivo maximum-tolerated concentration (MTC) study in zebrafish larvae; parameters: species or system zebrafish (Danio rerio); conditions: for Survival rate: 24-h treatment, fifteen larvae
Experimental: Internal protocols based on published standard methods (Westerfield, [2007]) were used to perform zebrafish husbandry and the maximum-tolerated concentration (MTC) testing was based on a previous study (Richter et al., [2019a]). Danieau's medium [17 mM NaCl, 2 mM KCl, 0.12 mM MgSO4, 1.8 mM Ca(NO3)2, 1.5 mM HEPES, pH 7.1–7.3, and 1.2 μM methylene blue] at 28°C was used to raise zebrafish larvae of the AB wild-type strain. For MTC testing, 96-well plates were used with 100 μl of medium and one larva per well. Drug exposition was started 4 dpf using 0, 0.01, 0.1, 1, 10, 50, or 100 μM final concentrations of 3,4-DMA-NBOMe, ephylone, 4F-MDMB-BINACA, 4F-PHP, or 1P-LSD, respectively. The drug exposure in the incubator at 28°C lasted 24 h. The final DMSO concentration was 1% (v/v) for all experiments. Monitoring of the larvae was done using a LEICA M205 FA stereo microscope (Leica Mikrosysteme Vertrieb GmbH, Wetzlar, Germany) to detect developmental defects and/or decreased survival rates. Fifteen larvae were used for each experiment.

[2] = ref Wagmann et al., cited from earlier work
monooxygenases = conditions: initial monooxygenases activity screenings described elsewhere; ref Caspar et al., [2018a]; Wagmann et al., [2019b],[c]; cited from earlier work
[3] = after assumed consumption of a blotter containing 1P-LSD; ref Grumann et al., [2019]; cited from earlier work
[4] = after subcutaneous administration of 1P-LSD to rats; ref Halberstadt et al., [2019]; cited from earlier work
zebrafish larvae [5] = test: Zebrafish larvae exposure, metabolite identification by LC-HRMS/MS; conditions: 24 h

SMILES: CCC(=O)n1cc2c3c(cccc31)C1=C[C@@H](C(=O)N(CC)CC)CN(C)[C@@H]1C2 [Metabolite 1P-LSD, 1-propionyl-d-lysergic acid diethylamide]
- Absolute peak area, HepaRG [25 μM] (HepaRG cells; 25 μM parent NPS, cell culture medium, one replicate of n = 3, n.d. = not detected): 3.60E+07
- Number of phase I metabolites detected, HepaRG [25 μM] (HepaRG cells; 25 μM): 14
- Number of phase II metabolites detected, HepaRG [25 μM] (HepaRG cells; 25 μM): 1
- Absolute peak area, HepaRG [250 μM] (HepaRG cells; 250 μM parent NPS, cell culture medium, one replicate of n = 3, n.d. = not detected): 5.41E+06
- Number of phase I metabolites detected, HepaRG [250 μM] (HepaRG cells; 250 μM): 15
- Number of phase II metabolites detected, HepaRG [250 μM] (HepaRG cells; 250 μM): 2
- Survival rate (zebrafish larvae [1]; 0.01 μM, larvae 4 dpf): 100%
- Survival rate (zebrafish larvae [1]; 0.1 μM, larvae 4 dpf): 100%
- Survival rate (zebrafish larvae [1]; 1 μM, larvae 4 dpf): 100%
- Survival rate (zebrafish larvae [1]; 10 μM, larvae 4 dpf): 100%
- Survival rate (zebrafish larvae [1]; 50 μM, larvae 4 dpf): 100%
- Survival rate (zebrafish larvae [1]; 100 μM, larvae 4 dpf): 100%
- Survival rates for all tested concentrations (zebrafish larvae [1]; 0.01 to 100 μM, larvae 4 dpf, 24 h): 100%
- Concentration considered non-toxic for zebrafish larvae (4 dpf) (zebrafish larvae [1]; 24 h exposure via medium): 100 µM
- Malformations (zebrafish larvae [1]; up to 100 μM, larvae 4 dpf, 24 h): no malformations
- Number of phase I metabolites detected, pHLS9 [25 μM] ([2]; 25 μM, [2019c]): 8 (Wagmann et al., [2019c])
- Number of phase II metabolites detected, pHLS9 [25 μM] ([2]; 25 μM, [2019c]): 0 (Wagmann et al., [2019c])
- Detection in pHLS9 [25 µM] ([2]; 1P-LSD and metabolites, n = 2, according to literature, 2019b): +
- Monooxygenases involved in metabolism (monooxygenases): N-dealkylated and hydroxylated exclusively by CYP3A4
- Detection in serum and urine samples of an intoxicated patient [3]: could not be detected
- Detection in rat plasma [4]: able to detect
- Number of phase I metabolites detected, Zebrafish larvae (zebrafish larvae [5]; 100 μM in medium): 22
- Number of phase II metabolites detected, Zebrafish larvae (zebrafish larvae [5]; 100 μM in medium): 3
- Absolute peak area, Zebrafish larvae [100 µM] (zebrafish larvae [5]; 100 µM parent NPS in medium, larvae 4 dpf, larvae extract, one replicate of n = 3, n.d. = not detected): 2.92E+09
